Reference: patent US11441138B2, “Method for selection of high M6P recombinant proteins” (Amicus Therapeutics, Inc., priority 2016, dated 2022)
Read-outs that look alike come from different tables or passages of the source. Each block holds one compound with its values, some of them ahead of it.

Key:
[1] = Phase 1/2 study: plasma miglustat pharmacokinetics; type: in vivo, human; details: for half-life / Vd/F / AUC(0-inf) / AUC(0-t) / Cmax / Tmax: both sexes, human, plasma, po; for half-life / Vd/F / AUC(0-inf) / AUC(0-t) / Cmax / Tmax / CL/F: plasma miglustat; for half-life / Vd/F / CL/F: arithmetic mean; for Vd/F: read-out: Vz/F; for AUC(0-inf) / AUC(0-t) / Cmax: geometric mean; for Tmax: median
Method: (§1) Mean total GAA protein and miglustat PK results from the first 8 Cohort 1 patients through Visit 9 and the first 2 Cohort 3 patients were assessed.

[2] = target: ATB200 (Homo sapiens, UniProt P10253, H199R/R223H/V780I); test: Stabilization of ATB200 by miglustat; details: neutral pH of plasma
[3] = target: T1, CIMPR (Homo sapiens, UniProt P11717); test: CIMPR plate binding assay
Method: In addition to having a greater percentage of rhGAA that can bind to the CIMPR, it is important to understand the quality of that interaction. […] Briefly, CIMPR-coated plates were used to capture GAA. Varying concentrations of rhGAA were applied to the immobilized receptor and unbound rhGAA was washed off. The amount of remaining rhGAA was determined by GAA activity.

[4] = test system: normal and Pompe fibroblast cell lines; test: Cellular uptake of rhGAA by fibroblasts (16-hr incubation, 4MU-α-Glucoside hydrolysis); type: cell-based; details: for concentration that saturates cellular receptors: normal and Pompe fibroblasts, 16-hr incubation
Method: The relative cellular uptake of ATB200 and Lumizyme® rhGAA were compared using normal and Pompe fibroblast cell lines. […] After 16-hr incubation, external rhGAA was inactivated with TRIS base and cells were washed 3-times with PBS prior to harvest. Internalized GAA measured by 4MU-α-Glucoside hydrolysis and was graphed relative to total cellular protein and the results appear in FIGS. 13A-13B.

[5] = test system: Pompe fibroblasts and skeletal muscle myoblasts; test: Internalization by Pompe fibroblasts and skeletal muscle myoblasts; type: cell-based
[6] = Apparent plasma half-life in vivo
[7] = test system: Gaa knockout mice; test: Glycogen reduction in Gaa knockout mice, two IV bolus administrations; type: in vivo, mouse
From the text: Animals were given two IV bolus administrations (every other week); tissues were harvested two weeks after the last dose and analyzed for acid α-glucosidase activity and glycogen content.

[8] = test system: GAA KO mice; test: Glycogen clearance in GAA KO mice, 4 injections with or without miglustat (FIG. 15); type: in vivo, mouse; details: rhGAA 20 mg/kg IV every other week, miglustat 10 mg/kg PO 30 min prior where co-administered, 14 days after last dose
From the text: Tissues were collected 14 days after last enzyme dose for glycogen measurement.

[9] = test system: Gaa knockout mice; test: Muscle physiology and morphology in Gaa-knockout mice; type: in vivo, mouse; details: rhGAA 20 mg/kg IV every other week; miglustat 10 mg/kg oral 30 mins prior; compared to alglucosidase alfa
Method: Control mice were treated with vehicle alone. Soleus, quadriceps and diaphragm tissue is harvested two weeks after the last dose of recombinant human acid α-glucosidase. […] Semi-thin sections of quadriceps muscle embedded in epoxy resin (Epon) were stained with methylene blue and observed by […] (1000×) to determine the extent of the presence of vacuoles. […] Control mice were treated with vehicle alone. Cardiac muscle tissue was harvested two weeks after the last dose of recombinant human acid α-glucosidase and analyzed for glycogen levels, by staining with periodic acid-Schiff reagent (PAS), and for lysosome proliferation, by measuring levels of LAMP1.

[10] = test system: GAA KO mice; test: Muscle function in Gaa-knockout mice, longer-term studies; type: in vivo, mouse
[11] = Phase 1/2 study: plasma total GAA protein pharmacokinetics; design: species or system human; details: in vivo
[12] = test system: adults with Pompe disease; test: Phase 1/2 study: safety; type: in vivo, human; details: no infusion-associated reactions to date
Method: as §1

[13] = target: T1, CIMPR; test: CIMPR affinity chromatography of rhGAA (bound vs unbound GAA activity); type: binding; details: for CIMPR binding compared with ATB200 rhGAA: FIGS. 4A, 4B, 7A, 7B; for rhGAA bound to CIMPR / containing M6P (eluted with M6P) / rhGAA that did not bind to the CIMPR (GAA activity eluted prior to addition of M6P): fraction of total enzyme by GAA activity
Method: To evaluate the ability of the rhGAA in Myozyme® and Lumizyme®, the only currently approved treatments for Pompe disease, these rhGAA preparations were injected onto a CIMPR column (which binds rhGAA having M6P groups) and subsequently eluted with a free […] gradient. Fractions were collected in 96-well plate and GAA activity assayed by 4MU-α-glucose substrate. The relative amounts of bound and unbound rhGAA were determined based on GAA activity and reported as the fraction of total enzyme.
Multiple batches of the rhGAA according to the invention were produced in shake flasks and in perfusion bioreactors using CHO cell line GA-ATB-200 and CIMPR binding was measured.

[14] = test system: subjects with Pompe disease; details: cited from earlier work
[15] = 130 mg, Low (about 130 mg oral) MD
[16] = 130 mg, Low (about 130 mg oral) SD
[17] = 260 mg, High (about 260 mg oral) MD
[18] = 260 mg, High (about 260 mg oral) SD

T1 sequence (P11717 41-2491, species assumed): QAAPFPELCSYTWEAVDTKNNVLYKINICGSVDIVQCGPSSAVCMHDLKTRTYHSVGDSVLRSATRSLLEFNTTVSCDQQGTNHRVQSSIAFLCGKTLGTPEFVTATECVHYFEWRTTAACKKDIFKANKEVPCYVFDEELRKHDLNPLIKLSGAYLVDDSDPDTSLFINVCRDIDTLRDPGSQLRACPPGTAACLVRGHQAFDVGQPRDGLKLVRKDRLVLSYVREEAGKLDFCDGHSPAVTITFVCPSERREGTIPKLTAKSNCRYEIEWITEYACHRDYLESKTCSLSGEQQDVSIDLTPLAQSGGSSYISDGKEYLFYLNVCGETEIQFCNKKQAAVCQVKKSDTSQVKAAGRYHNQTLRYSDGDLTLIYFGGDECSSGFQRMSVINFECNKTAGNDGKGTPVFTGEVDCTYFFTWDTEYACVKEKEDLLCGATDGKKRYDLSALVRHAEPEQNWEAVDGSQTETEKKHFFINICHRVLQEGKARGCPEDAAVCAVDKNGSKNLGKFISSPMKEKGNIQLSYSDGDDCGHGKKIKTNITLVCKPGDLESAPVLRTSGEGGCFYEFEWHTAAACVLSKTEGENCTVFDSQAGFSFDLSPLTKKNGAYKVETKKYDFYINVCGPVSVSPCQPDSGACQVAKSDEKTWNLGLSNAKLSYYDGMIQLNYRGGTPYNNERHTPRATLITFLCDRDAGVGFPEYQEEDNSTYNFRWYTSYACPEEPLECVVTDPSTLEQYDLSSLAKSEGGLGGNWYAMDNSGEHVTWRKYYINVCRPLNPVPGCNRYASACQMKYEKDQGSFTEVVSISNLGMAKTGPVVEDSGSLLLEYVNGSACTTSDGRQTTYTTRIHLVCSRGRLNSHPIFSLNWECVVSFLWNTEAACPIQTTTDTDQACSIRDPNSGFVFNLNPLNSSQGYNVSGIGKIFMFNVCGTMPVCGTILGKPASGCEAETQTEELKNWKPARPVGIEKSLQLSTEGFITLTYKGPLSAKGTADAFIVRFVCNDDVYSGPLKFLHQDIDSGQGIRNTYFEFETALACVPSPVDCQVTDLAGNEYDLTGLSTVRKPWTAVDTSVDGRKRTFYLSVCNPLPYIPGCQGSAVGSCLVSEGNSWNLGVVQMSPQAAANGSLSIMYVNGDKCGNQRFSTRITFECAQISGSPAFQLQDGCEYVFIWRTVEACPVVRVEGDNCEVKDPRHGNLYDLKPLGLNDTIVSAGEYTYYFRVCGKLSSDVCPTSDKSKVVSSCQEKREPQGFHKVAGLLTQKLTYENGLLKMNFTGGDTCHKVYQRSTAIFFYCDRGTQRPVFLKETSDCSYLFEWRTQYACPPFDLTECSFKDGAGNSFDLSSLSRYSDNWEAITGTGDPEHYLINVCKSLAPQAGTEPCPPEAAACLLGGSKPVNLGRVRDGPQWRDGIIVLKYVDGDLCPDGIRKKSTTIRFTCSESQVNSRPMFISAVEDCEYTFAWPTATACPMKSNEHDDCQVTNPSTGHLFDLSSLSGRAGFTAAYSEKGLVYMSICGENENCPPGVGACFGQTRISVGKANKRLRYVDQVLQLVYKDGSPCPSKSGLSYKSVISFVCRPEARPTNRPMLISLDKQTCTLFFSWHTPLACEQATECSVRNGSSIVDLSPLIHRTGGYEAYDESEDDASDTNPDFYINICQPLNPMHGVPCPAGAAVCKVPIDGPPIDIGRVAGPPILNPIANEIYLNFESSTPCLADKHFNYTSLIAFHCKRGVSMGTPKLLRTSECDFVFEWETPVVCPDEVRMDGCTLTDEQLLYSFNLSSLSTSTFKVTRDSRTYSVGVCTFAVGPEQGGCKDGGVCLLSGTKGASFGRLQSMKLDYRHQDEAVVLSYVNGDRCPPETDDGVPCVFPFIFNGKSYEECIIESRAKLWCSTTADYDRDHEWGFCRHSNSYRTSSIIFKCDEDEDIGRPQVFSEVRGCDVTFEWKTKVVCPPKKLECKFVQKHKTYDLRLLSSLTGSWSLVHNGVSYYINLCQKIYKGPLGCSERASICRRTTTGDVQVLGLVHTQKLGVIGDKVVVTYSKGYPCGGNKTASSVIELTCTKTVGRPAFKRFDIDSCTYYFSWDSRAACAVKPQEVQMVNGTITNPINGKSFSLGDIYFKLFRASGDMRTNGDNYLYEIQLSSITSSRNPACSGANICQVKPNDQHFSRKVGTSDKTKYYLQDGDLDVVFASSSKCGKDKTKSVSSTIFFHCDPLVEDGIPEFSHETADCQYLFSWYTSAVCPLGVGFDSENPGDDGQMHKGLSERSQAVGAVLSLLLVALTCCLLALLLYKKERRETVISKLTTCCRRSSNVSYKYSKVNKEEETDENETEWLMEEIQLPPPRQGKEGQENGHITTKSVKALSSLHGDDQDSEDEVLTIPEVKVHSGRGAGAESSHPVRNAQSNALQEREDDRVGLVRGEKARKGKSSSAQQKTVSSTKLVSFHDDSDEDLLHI

- dose proportionality of plasma miglustat ([1]; 130 mg and 260 mg oral): dose-proportional kinetics
- half-life [1, 15]: 5.9 h
- Vd/F [1, 15]: 86.7 L
- AUC(0-inf) [1, 15]: 13100 ng·h/mL
- AUC(0-t) [1, 15]: 12300 ng·h/mL
- Cmax [1, 15]: 1520 ng/mL
- Tmax [1, 15]: 3 h
- half-life [1, 16]: 5.6 h
- Vd/F [1, 16]: 85.8 L
- AUC(0-inf) [1, 16]: 12600 ng·h/mL
- AUC(0-t) [1, 16]: 11800 ng·h/mL
- Cmax [1, 16]: 1490 ng/mL
- Tmax [1, 16]: 3.5 h
- half-life [1, 17]: 5.3 h
- Vd/F [1, 17]: 81 L
- AUC(0-inf) [1, 17]: 26000 ng·h/mL
- AUC(0-t) [1, 17]: 25000 ng·h/mL
- Cmax [1, 17]: 3570 ng/mL
- Tmax [1, 17]: 3 h
- half-life [1, 18]: 5.7 h
- Vd/F [1, 18]: 86.3 L
- AUC(0-inf) [1, 18]: 25900 ng·h/mL
- AUC(0-t) [1, 18]: 24000 ng·h/mL
- Cmax [1, 18]: 3060 ng/mL
- Tmax [1, 18]: 3.5 h
- CL/F ([1]; High (about 260 mg oral) MD): 10.3 L/h
- CL/F ([1]; High (about 260 mg oral) SD): 10.6 L/h
- CL/F ([1]; Low (about 130 mg oral) MD): 10.2 L/h
- CL/F ([1]; Low (about 130 mg oral) SD): 10.6 L/h
Compound: CCCCN1C[C@H](O)[C@@H](O)[C@H](O)[C@H]1CO [miglustat, (2R,3R,4R,5S)-1-butyl-2-(hydroxymethyl)piperidine-3,4,5-triol]
- effect on unfolded ATB200 protein / active conformation [2]: decrease the percentage of unfolded ATB200 protein

- Kd ([3]; M6P receptor plate binding assays): 2 to 4 nM
Compound: ATB200: recombinant human acid α-glucosidase with high M6P content, expressed in CHO cells, described in co-pending application PCT/US2015/053252
- CIMPR binding compared with Lumizyme® ([3]; FIG. 12A): bound to CIMPR significantly better than Lumizyme®
- internalization into normal and Pompe fibroblast cells ([4]; compared with Lumizyme® rhGAA): internalized to a greater degree than conventional Lumizyme® rhGAA
- concentration that saturates cellular receptors [4]: about 20 nM
- Kuptake [5]: 7 to 14 nM
- apparent plasma half-life (t1/2) [6]: ~0.75 h
- depletion of tissue glycogen ([7]; 5, 10 and 20 mg/kg, two IV bolus every other week, tissues two weeks after last dose): dose-dependent fashion
- reduction of glycogen levels in skeletal muscles ([7]; 10 and 20 mg/kg, compared to Lumizyme® 20 mg/kg): significantly better reduction of glycogen levels
- relative reduction of glycogen in quadriceps and triceps skeletal muscle [8]: greater reduction of glycogen than Lumizyme®
- lysosome proliferation (LAMP1) in heart, diaphragm and soleus [9]: reduction in lysosome proliferation
- punctate glycogen levels (PAS) in heart and soleus [9]: reduction in punctate glycogen levels
- intracellular accumulation of dystrophin ([10]; 6 months of administration, comparison with Lumizyme®): lowered intracellular accumulation of dystrophin
- volume of distribution (in words) ([11]; human): relatively high volume of distribution
- AUC0-∞ ([11]; human, 5 mg/kg): 218 ng·h/mL
- AUC(0-t) ([11]; human, 5 mg/kg): 215 ng·h/mL
- Cmax ([11]; human, 5 mg/kg): 61 ng/mL
- Tmax ([11]; human, 5 mg/kg): 3.8 h
- Vss ([11]; human, 5 mg/kg): 4.62 L
- αt1/2 ([11]; human, 5 mg/kg): 1.1 h
- βt1/2 ([11]; human, 5 mg/kg): 1.9 h
- AUC0-∞ ([11]; human, 10 mg/kg): 584 ng·h/mL
- AUC(0-t) ([11]; human, 10 mg/kg): 578 ng·h/mL
- Tmax ([11]; human, 10 mg/kg): 4.0 h
- αt1/2 ([11]; human, 10 mg/kg): 1.6 h
- βt1/2 ([11]; human, 10 mg/kg): 1.6 h
- AUC0-∞ ([11]; human, 20 mg/kg): 1512 ng·h/mL
- AUC(0-t) ([11]; human, 20 mg/kg): 1508 ng·h/mL
- Tmax ([11]; human, 20 mg/kg): 4.0 h
- αt1/2 ([11]; human, 20 mg/kg): 1.5 h
- βt1/2 ([11]; human, 20 mg/kg): 2.1 h
- CLT ([11]; 5 mg/kg): 2.1 L/h
- CLT ([11]; 10 mg/kg): 1.59 L/h
- CLT ([11]; 20 mg/kg): 1.22 L/h
- safety and tolerability overall [12]: safe and well tolerated

- CIMPR binding compared with ATB200 rhGAA [13]: significantly less CIMPR binding
- rhGAA bound to CIMPR / containing M6P (eluted with M6P) [13]: 22%
- rhGAA that did not bind to the CIMPR (GAA activity eluted prior to addition of M6P) [13]: 78%
Compound: Lumizyme®: conventional rhGAA product (alglucosidase alfa) marketed by Genzyme
- uptake efficiency constant (Kuptake) ([4]; extrapolated from uptake curves, FIG. 13C): 56 nM
- concentration that saturates cellular receptors [4]: about 250 nM
- functional muscle strength (grip strength and wire hang tests) ([10]; 12 biweekly administrations, ERT 20 mg/kg, miglustat 10 mg/kg, from baseline): decline

- CIMPR binding compared with ATB200 rhGAA [13]: significantly less CIMPR binding
- rhGAA bound to CIMPR / containing M6P (eluted with M6P) [13]: 27%
- rhGAA that did not bind to the CIMPR (GAA activity eluted prior to addition of M6P) [13]: 73%
Compound: Myozyme®: conventional rhGAA product (alglucosidase alfa) marketed by Genzyme

Compound: [199-arginine,223-histidine]prepro-α-glucosidase (human) [alglucosidase alfa]
- apparent plasma half-life (t1/2) [6]: ~1 h
- survival in infantile onset Pompe disease ([14]; compared to historical controls): significantly improve survival
- effect on 6-Minute Walk Test (6MWT) and forced vital capacity (FVC) in late onset Pompe disease ([14]; compared to placebo): statistically significant, if modest, effect
